Where two headings read alike, the source gives them in different places.
Key:
phosphorylated PDK1 = phosphorylated PDK1 (Homo sapiens (Human), UniProt O15530); assay: PDK1 kinase assay (coupled PDK1/AKT/FAM-crosstide, IMAP); assay type: biochemical; details: 0.5 nM phosphorylated PDK1, 24 μM ATP; read-out: Inhibition of phospo-PDK1 in vitro IC50
dephosphorylated PDK1 = dephosphorylated PDK1 (Homo sapiens (Human), UniProt O15530); assay: as above; assay type: biochemical; details: 25 nM un-phosphorylated PDK1, 24 μM ATP; read-out: Inhibition of dephospo-PDK1 in vitro IC50
Chain of dephosphorylated PDK1 (O15530 51-360): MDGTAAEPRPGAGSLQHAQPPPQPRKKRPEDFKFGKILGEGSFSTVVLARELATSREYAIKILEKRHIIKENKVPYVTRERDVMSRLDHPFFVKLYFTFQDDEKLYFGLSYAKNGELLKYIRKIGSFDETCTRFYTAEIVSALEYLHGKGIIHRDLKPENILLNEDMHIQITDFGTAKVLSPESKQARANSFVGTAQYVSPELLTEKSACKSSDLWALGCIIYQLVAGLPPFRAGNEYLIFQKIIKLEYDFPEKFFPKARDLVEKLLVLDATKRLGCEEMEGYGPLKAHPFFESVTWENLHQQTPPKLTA
Procedure: A PDK1 kinase assay was performed as follows. PDK1 (amino acids 51-360) and AKT2 (amino acids 140-467 fused to PIFtide, amino acids […]) were expressed as N-terminally tagged GST fusion proteins in insect cells and purified to greater than 90% homogeneity. PDK1 protein was divided into two fractions, one of which was subsequently dephosphorylated. To generate dephosphorylated PDK1, the PDK1 was reacted with GST-tagged lambda-phosphatase in vitro. GST was subsequently cleaved proteolytically for both phosphorylated and dephosphorylated PDK1. Protein preparations were run on glutathione Sepharose columns to remove GST and GST-tagged lambda-phosphatase, if present. Phosphorylated PDK1 and dephosphorylated PDK1 were verified by mass-spectrometry. Enzyme activity was determined in a coupled PDK1/AKT/FAM-crosstide assay using either phosphorylated or unphosphorylated PDK1 and phosphorylation of FAM-crosstide was determined by standard IMAP protocol (Molecular Devices). For inhibition studies, compounds were titrated 3-fold in DMSO and diluted 40-fold into assay buffer (10 mM Tris HCl pH7.2; 10 mM MgCl2; 0.01% Triton X-100; 1 mM DTT) containing PDK1, AKT2, and FAM-crosstide. (final concentrations: 25 nM un-phosphorylated PDK1 or 0.5 nM phosphorylated PDK1, 30 nM unphosphorylated AKT2, and 100 nM crosstide substrate). The kinase reaction was initiated by adding ATP to a final concentration of 24 μM for both forms of PDK1 and incubated at 25° C. for 30 min. To detect assay product, the kinase reaction was combined with Progressive Binding Solution (1:600 Progressive Binding Reagent, 50% Buffer A, 50% Buffer B, Molecular Devices) in a 1:3 ratio. The mixture was incubated for 2 hours at 25° C. and the plate was scanned on an Analyst AD with excitation at 485 nm and emission at 530 nm. The fluorescence polarization value “P” is defined by the equation below. The value “mP” is generated by multiplying the P value for each reaction well by a factor of 1000. The value “ΔmP” for each well is the mP value for that well minus the mP value for the average negative control. P=(Fpar−Fperp)/(Fpar+Fperp) Eq.:
Where “par” is fluorescence intensity parallel to the excitation plane; and “perp” is fluorescence intensity perpendicular to the excitation plane. ΔmP values were plotted as a function of compound concentration and the data were analyzed with a 4-parameter fit using GraphPad Prism software.

phospho-akt (Thr308) = phospho-akt (Thr308) MSD ELISA in PC-3 cells; assay type: cell-based; details: Homo sapiens; for EC50: PC-3, 2 h; for inhibition at 1 µM / inhibition at 10 µM: read-out: Percent Inhibition of phospho-Akt (308) By MSD ELISA
Method in brief: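 PC-3 cells plated overnight in 10% FBS medium, then treated with three-fold serial compound dilutions in serum-free medium; DMSO-only wells as high control. Lysates captured on BSA-blocked MSD plates overnight at 4 degrees, detection antibody 1 hr RT, electrochemiluminescence read on MSD reader.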

[1] = PC-3 cells, 2 hours, no serum, read-out: Inhibition of P308 Akt in cells using MSD EC50
[2] = read-out: Inhibition of P308 Akt in cells using MSD EC50
[3] = PC-3 cells, 2 hours, no serum, read-out: Reduction of Cellular Levels of Akt p308 By MSD ELISA (EC50 μM)

Chain of phosphorylated PDK1 (O15530 51-360): as above

Structure (SMILES) | IC50 (phosphorylated PDK1) [nM] | IC50 (dephosphorylated PDK1) [nM] | EC50 (phospho-akt (Thr308); [1]) [µM] | inhibition at 1 µM (phospho-akt (Thr308); PC-3 cells) [%] | inhibition at 10 µM (phospho-akt (Thr308); PC-3 cells) [%] | EC50 (phospho-akt (Thr308); [2]) [µM] | EC50 (phospho-akt (Thr308); [3]) [µM] | EC50 (phospho-akt (Thr308); read-out: Reduction of Cellular Levels of Akt p308 By MSD ELISA (EC50 μM)) [µM]
CN(C)C(=O)C[C@@H](NC(=O)c1cccn(Cc2ccc(F)c(F)c2)c1=O)c1ccc(-c2c[nH]c3ncccc23)s1 [Cpd 237] | < 500 | < 500 | > 5 | < 25 | 25 to 75 | – | – | –
O=C(NCc1cccc(-c2ccc(=O)[nH]c2)c1)c1cccn(Cc2ccc(F)c(F)c2)c1=O [Cpd 220] | 500 to 10000 | 500 to 10000 | – | 25 to 75 | 25 to 75 | – | – | –
Cc1ccc(Cn2cccc(C(=O)NCc3noc(-c4c[nH]c5ncccc45)n3)c2=O)cc1Cl [Cpd 317] | < 500 | < 500 | > 5 | 25 to 75 | > 75 | – | – | –
O=C(NCc1noc(-c2c[nH]c3ncccc23)n1)c1cccn(Cc2cc(F)cc(F)c2)c1=O [Cpd 150] | < 500 | < 500 | > 5 | – | – | – | – | –
O=C1Cc2ccc(/C=C/CNC(=O)c3cc(Cl)cn(Cc4cc(F)c(F)c(F)c4)c3=O)cc2N1 [Cpd 193] | < 500 | < 500 | – | – | – | > 5 | – | –
CNc1nc(-c2ccc(CNC(=O)c3cccn(Cc4ccc(F)c(F)c4)c3=O)s2)cn2ccnc12 [Cpd 325] | 500 to 10000 | < 500 | > 5 | – | – | – | – | –
NC(=O)CC[C@@H](NC(=O)c1cccn(Cc2ccc(F)c(F)c2)c1=O)c1nc(-c2c[nH]c3ncccc23)cs1 [Cpd 318] | < 500 | < 500 | – | < 25 | 25 to 75 | – | – | –
O=C(NCc1cc(-c2c[nH]c3ncccc23)[nH]n1)c1cccn(Cc2cc(F)c(F)c(F)c2)c1=O [Cpd 152] | < 500 | < 500 | 1 to 5 | – | – | – | – | –
O=C(N[C@H]1CC[C@@H](c2c[nH]c3ncccc32)CC1)c1cccn(Cc2ccc(F)c(F)c2)c1=O [Cpd 1] | < 500 | < 500 | > 5 | – | – | – | > 5 | –
O=C(NCCOc1cc2[nH]c(=O)[nH]c2cn1)c1cccn(Cc2ccc(F)c(F)c2)c1=O [Cpd 279] | < 500 | < 500 | – | – | – | – | > 5 | –
NC(=O)C(NC(=O)c1cccn(Cc2ccc(F)c(F)c2)c1=O)c1ccc(-c2c[nH]c3ncccc23)s1 (stereo not drawn) [Cpd 24] | < 500 | < 500 | – | – | – | 1 to 5 | – | 1 to 5
O=C(C[C@@H](NC(=O)c1cccn(Cc2ccc(F)c(F)c2)c1=O)c1nnc(-c2c[nH]c3ncccc23)o1)NCCO [Cpd 297] | < 500 | < 500 | – | < 25 | < 25 | – | – | –
O=C(NCc1noc(-c2ccc3ncnn3c2)n1)c1cccn(Cc2ccc(F)c(F)c2)c1=O [Cpd 235] | 500 to 10000 | < 500 | – | – | – | – | > 5 | –
O=C(NCc1cccc(-c2ccc3ncnn3c2)c1)c1cccn(Cc2ccc(F)c(F)c2)c1=O [Cpd 3] | < 500 | < 500 | – | < 25 | > 75 | – | 1 to 5 | –
CC(C)n1c(=O)[nH]c2cc(OCCNC(=O)c3cccn(Cc4ccc(F)c(F)c4)c3=O)ccc21 [Cpd 280] | < 500 | < 500 | > 5 | 25 to 75 | 25 to 75 | – | – | –
CNc1nc(-c2cccc(CNC(=O)c3cccn(Cc4ccc(F)c(F)c4)c3=O)c2)cn2ccnc12 [Cpd 326] | 500 to 10000 | 500 to 10000 | > 5 | – | – | – | – | –
O=C(NCc1ccc(-c2cccc3[nH]ncc23)s1)c1cccn(Cc2ccc(F)c(F)c2)c1=O [Cpd 58] | < 500 | < 500 | 1 to 5 | – | – | – | – | –
O=C(N[C@H](COc1ccc2[nH]c(=O)[nH]c2c1)c1ccc(F)cc1)c1cccn(Cc2ccc(C(F)(F)F)cc2)c1=O [Cpd 148] | < 500 | < 500 | 1 to 5 | – | – | – | 1 to 5 | –
O=C(NCc1cccc(-c2c[nH]c3cnccc23)c1)c1cccn(Cc2ccc(F)c(F)c2)c1=O [Cpd 242] | 500 to 10000 | < 500 | – | < 25 | > 75 | – | – | –
O=C(NCc1cccc(-c2ccc3[nH]ncc3c2)c1)c1cccn(Cc2ccc(F)c(F)c2)c1=O [Cpd 213] | < 500 | < 500 | – | – | – | – | 1 to 5 | –
O=C(NCc1ccc(-c2n[nH]c3ncccc23)s1)c1cccn(Cc2ccc(F)c(F)c2)c1=O [Cpd 7] | < 500 | < 500 | < 1 | 25 to 75 | > 75 | – | < 1 | –
O=C(NCc1ccc(-c2ccc3[nH]ncc3c2)s1)c1cccn(Cc2ccc(F)c(F)c2)c1=O [Cpd 52] | < 500 | < 500 | 1 to 5 | – | – | – | – | –
O=C(NCCOc1ccc2c(c1)[nH]c(=O)n2C1CC1)c1cccn(Cc2ccc(F)c(F)c2)c1=O [Cpd 282] | < 500 | < 500 | > 5 | < 25 | 25 to 75 | – | – | –
COC(=O)c1cc(-c2c[nH]c3ncccc23)cc(CNC(=O)c2cccn(Cc3ccc(F)c(F)c3)c2=O)n1 [Cpd 175] | < 500 | < 500 | < 1 | – | – | – | – | –
O=C(NCc1cccc(-c2ccc3cn[nH]c3c2)c1)c1cccn(Cc2ccc(F)c(F)c2)c1=O [Cpd 328] | < 500 | < 500 | > 5 | – | – | – | – | –
CC(C)[C@@H](COc1ccc2[nH]c(=O)[nH]c2c1)NC(=O)c1cccn(Cc2ccc(F)c(F)c2)c1=O [Cpd 320] | 500 to 10000 | < 500 | – | < 25 | 25 to 75 | – | – | –
O=C(NCCOc1ccc2cc[nH]c2c1)c1cccn(Cc2ccc(F)c(F)c2)c1=O [Cpd 179] | 500 to 10000 | 500 to 10000 | > 5 | – | – | – | – | –
O=C1Cc2ccc(/C=C/CNC(=O)c3cccn(Cc4cc(F)c(F)c(F)c4)c3=O)cc2N1 [Cpd 166] | < 500 | < 500 | > 5 | – | – | – | – | –
O=C(NCc1csc(-c2c[nH]c3ncccc23)n1)c1cccn(Cc2ccc(F)c(F)c2)c1=O [Cpd 121] | < 500 | < 500 | < 1 | – | – | – | – | –
